Square brackets hold non-standard residues; d marks the D form. Peptide text beside a SMILES is read from it. * marks the point of attachment. Asu = N[C@@H](CCCCCC(=O)O)C(=O)O; dPip = O=C(O)[C@H]1CCCCN1; NHOH = ON* A value given as a limit tells only on which side of the number the result lay.

Assay [1] addresses T1, Histone deacetylase 11 (Homo sapiens) (UniProt Q96DB2).
T1 sequence (whole entry): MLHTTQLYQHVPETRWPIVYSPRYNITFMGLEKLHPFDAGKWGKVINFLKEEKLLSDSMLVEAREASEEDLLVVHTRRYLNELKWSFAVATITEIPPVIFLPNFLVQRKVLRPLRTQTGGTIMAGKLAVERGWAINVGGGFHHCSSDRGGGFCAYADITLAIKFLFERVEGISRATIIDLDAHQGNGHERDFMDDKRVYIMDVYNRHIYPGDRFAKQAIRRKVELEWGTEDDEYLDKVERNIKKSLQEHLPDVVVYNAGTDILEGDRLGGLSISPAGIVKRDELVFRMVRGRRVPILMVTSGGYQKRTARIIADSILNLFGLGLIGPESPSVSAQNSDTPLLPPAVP
Kind of assay: Inhibition of HDAC11 (unknown origin) expressed in HEK293T cells at 100 uM relative to control. Format: cell-based.

Assay [2] deals with T2, Histone deacetylase 11 (Homo sapiens, UniProt Q96DB2).
T2 sequence (Q96DB2 whole entry): T1 sequence (whole entry)
Kind of assay: Inhibition of full length human recombinant HDAC11 using FAM-RHKK(tri-fluor-Ac)-NH2 as substrate by electrophoretic mobility shift assay. (A gel shift assay detects complexes by their altered migration in electrophoresis.)

The target of another assay is T3, Histone deacetylase 8 (Homo sapiens, UniProt Q9BY41).
T3 sequence (Q9BY41 whole entry): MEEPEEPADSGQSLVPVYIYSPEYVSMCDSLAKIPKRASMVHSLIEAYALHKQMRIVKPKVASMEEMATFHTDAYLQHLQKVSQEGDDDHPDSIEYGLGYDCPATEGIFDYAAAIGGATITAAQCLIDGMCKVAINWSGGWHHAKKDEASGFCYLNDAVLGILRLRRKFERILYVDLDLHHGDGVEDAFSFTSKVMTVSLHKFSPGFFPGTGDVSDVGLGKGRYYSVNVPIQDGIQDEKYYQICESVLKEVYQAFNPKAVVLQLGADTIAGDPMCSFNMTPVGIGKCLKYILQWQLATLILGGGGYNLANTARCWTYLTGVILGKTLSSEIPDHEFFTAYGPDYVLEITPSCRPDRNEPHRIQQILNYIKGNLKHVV
Kind of assay: Inhibition of human Flag-tagged HDAC8 expressed in HEK293T cells by fluorescence based analysis. The format is cell-based.

The target of assay [3] is T2, Histone deacetylase 11. As to the kind of experiment: Inhibition of HDAC11 (unknown origin).
Assay [4] addresses T4, Protein deacetylase HDAC6 (Homo sapiens, UniProt Q9UBN7).
T4 sequence (Q9UBN7 whole entry): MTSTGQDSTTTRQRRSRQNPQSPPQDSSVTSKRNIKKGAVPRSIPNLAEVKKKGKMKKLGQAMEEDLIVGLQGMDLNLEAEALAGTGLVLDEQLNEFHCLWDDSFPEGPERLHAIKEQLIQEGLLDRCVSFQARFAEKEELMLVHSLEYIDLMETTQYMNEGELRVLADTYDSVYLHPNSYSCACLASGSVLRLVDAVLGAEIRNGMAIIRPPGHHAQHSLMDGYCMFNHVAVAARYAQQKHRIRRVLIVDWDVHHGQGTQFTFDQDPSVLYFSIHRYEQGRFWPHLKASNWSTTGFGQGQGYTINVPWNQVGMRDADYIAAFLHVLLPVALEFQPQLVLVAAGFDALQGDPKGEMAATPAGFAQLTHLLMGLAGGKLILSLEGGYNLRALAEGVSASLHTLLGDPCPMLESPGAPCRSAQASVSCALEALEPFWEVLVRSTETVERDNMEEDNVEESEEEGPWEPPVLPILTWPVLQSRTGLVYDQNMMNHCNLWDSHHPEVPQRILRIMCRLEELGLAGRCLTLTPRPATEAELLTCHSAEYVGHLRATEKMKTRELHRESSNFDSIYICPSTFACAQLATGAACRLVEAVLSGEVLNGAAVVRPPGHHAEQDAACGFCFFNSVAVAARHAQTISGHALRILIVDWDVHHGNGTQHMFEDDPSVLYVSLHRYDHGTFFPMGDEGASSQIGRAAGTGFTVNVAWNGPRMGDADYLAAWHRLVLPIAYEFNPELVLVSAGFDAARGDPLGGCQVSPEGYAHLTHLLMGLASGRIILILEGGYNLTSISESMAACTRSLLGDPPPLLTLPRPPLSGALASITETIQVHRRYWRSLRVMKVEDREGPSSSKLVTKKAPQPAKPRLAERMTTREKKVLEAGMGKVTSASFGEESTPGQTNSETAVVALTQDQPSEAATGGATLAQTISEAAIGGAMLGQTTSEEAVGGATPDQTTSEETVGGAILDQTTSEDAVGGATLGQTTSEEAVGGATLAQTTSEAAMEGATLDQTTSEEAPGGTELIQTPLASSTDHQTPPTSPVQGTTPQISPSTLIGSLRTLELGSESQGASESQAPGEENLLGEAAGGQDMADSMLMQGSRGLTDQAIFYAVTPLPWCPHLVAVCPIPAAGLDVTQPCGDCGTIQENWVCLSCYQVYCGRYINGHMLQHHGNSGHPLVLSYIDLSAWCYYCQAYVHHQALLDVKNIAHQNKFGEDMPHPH
As to the kind of experiment: Inhibition of human recombinant HDAC6 using AMC-K(Ac)GL as substrate by fluorescence based assay.

In assay [5] the target is T2, Histone deacetylase 11. As to the kind of experiment: Inhibition of full length N-terminal GST-tagged human HDAC11.

With `CCCCCCCC(=O)O`, the inhibition (in general, how much of the control response was suppressed) in assay [1] was under 20%.
As to `CCCCCCCCCCCCCCCC(=O)O` [PALMITIC ACID], the IC50 (usually the point on the concentration scale where inhibition reaches its midpoint) on Histone deacetylase 11 [2] was found to be 900 µM.
In the case of `CCCCCCCCCCCCCCCCNNC(=O)c1cccs1`, the IC50 at Histone deacetylase 8 was over 100 µM.
On to `O=C(O)/C=C/c1ccc(-c2ccc(O)c(C34CC5CC(CC(C5)C3)C4)c2)cc1` [ADAROTENE], for which, on Histone deacetylase 11 [3], the IC50 is over 10 µM.
In turn, `CCCCCCCCCCCCCCCCNNC(=O)c1ccc(N(C)C)cc1` displayed a 50% inhibitory concentration (IC50) against Histone deacetylase 8 of over 100 µM.
As for `Cn1c(/C=C/C(=O)NO)ccc1/C=C/C(=O)c1cccc(F)c1`, in assay [4], the half-maximal inhibitory concentration (IC50) was found to be 8.4 µM.
`CC[C@H](C)[C@@H]1NC(=O)[C@H](Cc2c[nH]c3ccccc23)NC(=O)[C@H](CCCCCC(=O)NO)NC(=O)[C@H]2CCCCN2C1=O` (cyclo([Asu](NHOH)WI[dPip])) displayed an IC50 at Histone deacetylase 11 [5] of 0.01 µM.
For the compound `O=C(O)C(F)(F)F`, the inhibition in assay [1] is under 5%.
The same measure, in the same setting: the result for `CC(=O)O` reads under 10%.
Same read-out and setting: the result for `O=C(O)CCCC[C@@H]1CCSS1` reads under 20%; that for `CCCCCC(=O)O`, under 20%.
Still for that read-out and setting: the result for `O=C(O)CCCC[C@@H]1SC[C@@H]2NC(=O)N[C@@H]21` reads under 20%; that for `CCC(=O)O`, under 10%; that for `CCCC(=O)O`, under 5%.

Values taken from ChEMBL document CHEMBL6071125, “Biological function and small molecule inhibitors of histone deacetylase 11” (Eur J Med Chem, 2024).
